According to US20250325516A1, “SEROTONIN ANALOGUES FOR USE IN TREATING METALLOPTOSIS-ASSOCIATED DISORDERS” (INSTITUT CURIE, priority 2022, published 2025):
Entries after “also recorded” stand apart in the source; their conditions may differ. Structures can show the parent of a compound that is named as a salt.

What was measured:
[1] = tested on: Cells treated with a ferroptosis inducer; assay: CellTiter-Blue cell viability with a ferroptosis inducer (FIG. 6b); type: cell-based; settings: co-treatment with ferroptosis inducer
Experimental: Cell viability was evaluated by plating 4,000 cells/well in 96-well plates using CellTiter-Blue viability assay according to the manufacturer's protocol. CellTiter-Blue reagent (Promega, G8081) was added after 72 h treatment and cells were incubated for 2 h before recording fluorescence intensities (Eex. 560 nm; Eem. 590 nm) using a Perkin Elmer Wallac 1420 Victor2 Microplate Reader.

PDAC cells [2] = assay: Click-labelling fluorescence microscopy with LysoTracker and organelle antibodies, PDAC cells (FIG. 9); type: cell-based; settings: 10 μM, 3 h
Experimental: Pancreatic Ductal Adenocarcinoma (PDAC) cells were grown at 37° C. and 5% CO2 using medium prepared based on previously described (https://doi.org/10.1053/j.gastro.2004.03.058). Cells were plated on cover slips 24 h prior to the experiment. The cells were treated with 10 µM of compounds for 3 h and LysoTracker Deep Red (ThermoFisher Scientific L12492, 1:10000) according to the manufacturer's protocol. Subsequently, cells were washed three times with 1×PBS and fixed with 2% paraformaldehyde (w/v) in 1×PBS for 12 min, and then washed three times with 1×PBS. After fixation, cells were permeabilized with 0.1% Triton X-100 (v/v) in 1×PBS for 5 min and washed three times with 1×PBS. Then, cells were blocked in 2% BSA, 0.2% Tween-20 (w/v)/1×PBS (blocking buffer) for 20 min at RT. The click reaction cocktail was prepared from Click-iT EdU Imaging Kits (ThermoFisher Scientific, C10337) according to the manufacturer's protocol. Briefly, 868 μL of 1× Click-iT reaction buffer was mixed with 40 μl CuSO4 solution, 2 μL Alexa Fluor azide and 90 μl reaction buffer additive (sodium ascorbate) to reach a final volume of 1 mL. Cover slips were incubated with 50 μl of the click reaction cocktail in the dark at RT for 30 minutes, then washed three times with 1×PBS. Further, cells were incubated with the relevant antibody in blocking buffer for 1 h at room temperature and washed three times with blocking buffer. Then, cells were incubated with secondary antibodies for 1 h. Finally, cover slips were washed three times with 1×PBS and mounted using VECTASHIELD (Vector Laboratories) containing DAPI and were sealed with nail varnish Express manucure (Maybelline, 16P201). Fluorescence images were acquired using a Deltavision real-time microscope (Applied Precision). 100×/1.4NA objectives were used for 2D and 3D acquisitions that were deconvoluted with SoftWorx (Ratio conservative-10 iterations, Applied Precision) and processed with ImageJ.

HMLER cells [3] = assay: Click-chemistry fluorescence microscopy with LysoTracker co-staining, HMLER cells; type: cell-based, human; settings: 1 μM, 3 h, LysoTracker 45 mins, Alexa-488-N3 click
Experimental: (§1) All cells were grown in an incubator equilibrated at 37° C. with 5% CO2, grown to confluence and split with Trypsin/EDTA (Gibco, TRYPGIB01) once or twice a week according to confluence. HMLER cells ([…]) naturally repressing E-cadherin, obtained from human mammary epithelial cells infected with a retrovirus carrying hTERT, SV40 and the oncogenic allele H-rasV12, and HMLER CD44 and TFRC ko clones were cultured in DMEM/F12 (Thermo Fisher Scientific, 31331093) supplemented with 10% FBS (v/v) (Thermo Fisher Scientific, 10270106), 10 μg/mL insulin (Sigma-Aldrich, 10516), 0.5 μg/mL hydrocortisone (Sigma-Aldrich, H0888) and 0.5 μg/ml puromycin (Life Technologies, A11138-02), unless stated otherwise. PDAC053 T cells were grown in serum-free ductal medium: DMEM/F12 supplemented with 0.61 g/500 mL nicotinamide (Sigma-Aldrich, 3376), 2.50 g/500 mL glucose (Sigma-Aldrich, G6152), 1:200 ITS+ (Corning, 354352), 1:20 Nu-serum IV (Corning, 355104), 100 ng/ml cholera toxin, 1 μM dexamethasone (Sigma-Aldrich, D4902), 50 nM 3,3′,5-triiodo-L-thyronine (Sigma-Aldrich, T6397) and 1× PenStrep. BELA cells were cultured using published procedures (Nat. Comm. doi: 10.1038/ncomms14750).
Fluorescence microscopy of clickable serotonin analog A3: Cells were plated on cover slips 24 h prior to the experiment. […]

BELA cells [4] = assay: Annexin/PI flow cytometry, RSL3-treated BELA cells (FIG. 7); type: cell-based; settings: various concentrations of RSL3, 10 μM A3, 24 h
Experimental: (§2) Bodipy-C11 (Thermo Fisher Scientific, D3861) were used according to the manufacturer's protocol. RhoNox-M (in-house) was added to live cells prior to flow cytometry analysis for 1 h at a concentration of 1 μM. For the Annexin/PI assay (Thermo Fisher Scientific, V13245, manufacturer's protocol) BELA cells were treated with RSL3 in the presence or absence of 1 μM Liproxstatin-1 (Sigma-Aldrich, SML1414) or 10 μM A3 for 24 h. Cells were then washed twice with ice-cold 1×PBS and suspended in incubation buffer prior to being analyzed by flow cytometry. The manufacturer's protocol was followed. For each condition, at least 10,000 cells were counted. Data were recorded on an Attune (Thermo Fisher Scientific) and processed using FlowJo (FLOWJO, LLC).

PDAC cells [5] = assay: Cell apoptosis assay with Annexin V and propidium iodide, RSL3-treated PDAC cells (FIG. 10a); type: cell-based; settings: RSL3 0.1, 0.5, 2, 10 μM, compounds 10 μM, 24 h
Experimental: (§3) Pancreatic Ductal Adenocarcinoma (PDAC) cells were grown at 37° C. and 5% CO2 using medium prepared based on previously described (https://doi.org/10.1053/j.gastro.2004.03.058).
PDAC cells were seeded on 6 well plates at the density of 2×10^5 cells/well. RSL3 (0.1, 0.5, 2, 10 µM) was added along with compounds (10 μM) on the following day and after 24 h, the media was recovered and the cells were typsinated. The cells were harvested, pelleted along with the media recovered, washed with PBS, and 100 μl of 1× annexin binding buffer containing annexin V and PI (according to the manufacturer's protocol Dead Cell Apoptosis Kits with Annexin V for Flow Cytometry (Invitrogen)). Finally, PBS buffer containing 10% FBS and 1 mM of EDTA, was added for flow cytometry.

BELA cells [6] = assay: RhoNox-M (lysosomal Fe2+ probe) flow cytometry; type: cell-based; settings: 10 μM, 24 h
Experimental: as §1, §2

[7] = Colorimetric assessment of metal complex formation in aqueous solution; type: binding; settings: for colour of solution in the presence of FeCl3 and CuSO4, indicative of complex formation: aqueous solution, 3 equiv. compound, C=0.1 M; for complex formation with Fe(II), Fe(III) and Cu(II): colorimetric complexation studies in solution (FIG. 1) and NMR spectroscopy (FIG. 2)
Experimental: […] assessment of complex formation: To an aqueous solution of serotonin hydrochloride (3 equiv., C=0.1 M) or A3 formic salt (3 equiv., C=0.1 M) iron (III) chloride (1 equiv.) or copper (II) sulfate (C=0.1 M) was added. A color change characterized the formation of metal complexes.

HMLER cells [8] = assay: ICP-MS of total cellular iron and copper; type: cell-based, human; settings: 100 nM, 3 h or 24 h
Experimental: All cells were grown in an incubator equilibrated at 37° C. with 5% CO2, grown to confluence and split with Trypsin/EDTA (Gibco, TRYPGIB01) once or twice a week according to confluence. HMLER cells ([…]) naturally repressing E-cadherin, obtained from human mammary epithelial cells infected with a retrovirus carrying hTERT, SV40 and the oncogenic allele H-rasV12, and HMLER CD44 and TFRC ko clones were cultured in DMEM/F12 (Thermo Fisher Scientific, 31331093) supplemented with 10% FBS (v/v) (Thermo Fisher Scientific, 10270106), 10 μg/mL insulin (Sigma-Aldrich, 10516), 0.5 μg/mL hydrocortisone (Sigma-Aldrich, H0888) and 0.5 μg/ml puromycin (Life Technologies, A11138-02), unless stated otherwise. […]
Glass vials equipped with Teflon septa were cleaned with nitric acid 65% (w/v) (VWR, Suprapur, 1.00441.0250), washed with ultrapure water (Sigma-Aldrich, 1012620500) and dried. […] Cells were then counted using an automated cell counter (Entek) and transferred in 100 μL 1×PBS to the cleaned glass vials, and samples were lyophilized using a freeze dryer (CHRIST, 22080). […] 56Fe concentrations were measured using an Agilent 7900 ICP-QMS in low-resolution mode. […] Isotopes were measured using a collision-reaction interface with helium gas (5 mL/min) to remove polyatomic interferences. […]

[9] = tested on: Cells treated with a ferroptosis inducer; assay: BODIPY-C11 lipid peroxidation, cells treated with a ferroptosis inducer (FIG. 6a); type: cell-based; settings: co-treatment with ferroptosis inducer
Experimental: as §2

[10] = Cyclic voltammetry of FeCl3 after addition of compounds (FIG. 10b); type: binding; settings: 1 mM FeCl3 in 0.3 M nBu4NBF4 in MeCN, scan rate 2 V/s
Experimental: Cyclic voltammetry experiments were performed with a three-electrode cell under argon. Saturated Calomel Electrode (SCE) was used as reference, a steady Glassy Carbon (GC) electrode of diameter 3 mm was selected as working electrode and a Platinum wire as counter-electrode. All cyclic voltammograms were recorded at RT with a μ-autolab III from Metrohm using Nova software with a scan rate of 2 V/s. MeCN was used as a degassed HPLC grade from Carlo Erba. Water was mQ H2O. Stock solution of FeCl3 (100 mM) and Lip-1, A3, A0 and DFO (20 mM) were prepared with 0.3 M nBu4NBF4 in MeCN. 1 mM FeCl3 in 0.3 M nBu4NBF4 in MeCN (1 mL) was used as working solution for recording and subsequently equivalents of compounds were added, stirred and recorded.

PDAC cells [11] = assay: Anti-ferroptotic activity: BODIPY-C11 flow cytometry, PDAC cells co-treated with RSL3 (FIG. 8); type: cell-based; settings: RSL3 200 nM, compounds 10 μM
Experimental: as §3
PDAC cells were seeded on 6 well plates at the density of 2×10^5 cells/well. RSL3 (200 nM) was added along with compounds (10 μM for screening) on the following day and after 23 hr, BODIPY (4 μM) was added for 1 hr. The media was removed and the cells were washed with PBS twice before typsinization. The cells were harvested, pelleted, washed with PBS and finally PBS buffer containing 10% FBS and EDTA, was added for flow cytometry. The results are shown in FIG. 8 and this enabled us to establish a robust structure activity relationship on the serotonin scaffold.

[12] = reference in cyclic voltammetry; cited from earlier work

SMILES: C#CCNCCc1c[nH]c2ccc(O)cc12 [Compound A3]
- cell viability / cell death caused by a ferroptosis inducer [1]: rescues cell death; also recorded: rescue of cell viability
- localization in lysosomes (PDAC cells [2]): found to localize in lysosomes; also recorded: goes to lysosomes
- colocalization with other cell organelles (PDAC cells [2]; organelle antibodies): not on other cell organelles; also recorded: doesn't colocalize with other cell organelles
- localization in lysosomes (HMLER cells [3]): found to localize in lysosomes; also recorded: accumulate in lysosomes
- cell death induced by the ferroptosis inducer RSL3 (Annexin/propidium iodide) (BELA cells [4]): protects against RSL3-induced ferroptosis; also recorded: rescued cell death
- protection against RSL3-induced ferroptosis (Annexin/propidium iodide) (PDAC cells [5]): protects against RSL3-induced ferroptosis
- RhoNox-M fluorescence (lysosomal Fe(II)) (BELA cells [6]): increase of RhoNox-M fluorescence
- colour of solution in the presence of FeCl3 and CuSO4, indicative of complex formation [7]: form differently colored solutions
- complex formation with Fe(II), Fe(III) and Cu(II) [7]: form readily complexes
- total intracellular copper (ICP-MS) (HMLER cells [8]): increase
- total intracellular iron (ICP-MS) (HMLER cells [8]): increase
- lipid peroxidation (BODIPY-C11 fluorescence) induced by a ferroptosis inducer [9]: reduces lipid peroxidation; also recorded: reduction of lipid peroxidation
- binding / chelation of Fe^3+ (cyclic voltammetry) [10]: chelates/binds to Fe^3+

SMILES: C#CCN(CC#C)CCc1c[nH]c2ccc(O)cc12 [Compound A4]
- localization in lysosomes (PDAC cells [2]): localized in lysosomes
- anti-ferroptotic activity (active / inactive compound) (PDAC cells [11]): Active

SMILES: CC(=O)N(O)CCCCCNC(=O)CCC(=O)N(O)CCCCCNC(=O)CCC(=O)N(O)CCCCCN [DFO]
- Fe^3+ chelation, known property of the reference [12]: known Fe^3+ chelator

SMILES: CCCCNCCc1c[nH]c2ccc(O)cc12 [LT265B]
- RhoNox-M fluorescence (lysosomal Fe(II)) (BELA cells [6]): increase of RhoNox-M fluorescence

SMILES: CC(CCCCCCC(C)NCCc1c[nH]c2ccc(O)cc12)NCCc1c[nH]c2ccc(O)cc12 (stereo not drawn) [LC357]
- RhoNox-M fluorescence (lysosomal Fe(II)) (BELA cells [6]): increase of RhoNox-M fluorescence

SMILES: C#CCOc1ccc2[nH]cc(CCN(CC#C)CC#C)c2c1 [Compound A1]
- localization in lysosomes (PDAC cells [2]): localized in lysosomes
- anti-ferroptotic activity (active / inactive compound) (PDAC cells [11]): Active

SMILES: C#CCOc1ccc2c(c1)c(CCN(CC#C)CC#C)cn2CC#C [Compound A0]
- localization in lysosomes (PDAC cells [2]): doesn't go to lysosomes
- anti-ferroptotic activity (active / inactive compound) (PDAC cells [11]): inactive
- binding / chelation of Fe^3+ (cyclic voltammetry) [10]: doesn't binds to Fe^3+

SMILES: NCCc1c[nH]c2ccc(O)cc12 [Serotonin, serotonin hydrochloride]
- colour of solution in the presence of FeCl3 and CuSO4, indicative of complex formation [7]: form differently colored solutions
- complex formation with Fe(II), Fe(III) and Cu(II) [7]: form readily complexes

SMILES: Oc1ccc2[nH]cc(CCNC3CCCCC3)c2c1 [LC336]
- RhoNox-M fluorescence (lysosomal Fe(II)) (BELA cells [6]): increase of RhoNox-M fluorescence

SMILES: CCCCCCCCCCNCCc1c[nH]c2ccc(O)cc12 [LT262A]
- RhoNox-M fluorescence (lysosomal Fe(II)) (BELA cells [6]): increase of RhoNox-M fluorescence
